Calls of active or inactive are those of the source. The calls are words filed in the database; no cut-off is given here.
What was measured:
[1] = biological target: T1, Tyrosine-protein phosphatase non-receptor type 22 (Homo sapiens, UniProt Q9Y2R2); experiment: Inhibition of LYP (unknown origin)
T1 sequence (Q9Y2R2 whole entry): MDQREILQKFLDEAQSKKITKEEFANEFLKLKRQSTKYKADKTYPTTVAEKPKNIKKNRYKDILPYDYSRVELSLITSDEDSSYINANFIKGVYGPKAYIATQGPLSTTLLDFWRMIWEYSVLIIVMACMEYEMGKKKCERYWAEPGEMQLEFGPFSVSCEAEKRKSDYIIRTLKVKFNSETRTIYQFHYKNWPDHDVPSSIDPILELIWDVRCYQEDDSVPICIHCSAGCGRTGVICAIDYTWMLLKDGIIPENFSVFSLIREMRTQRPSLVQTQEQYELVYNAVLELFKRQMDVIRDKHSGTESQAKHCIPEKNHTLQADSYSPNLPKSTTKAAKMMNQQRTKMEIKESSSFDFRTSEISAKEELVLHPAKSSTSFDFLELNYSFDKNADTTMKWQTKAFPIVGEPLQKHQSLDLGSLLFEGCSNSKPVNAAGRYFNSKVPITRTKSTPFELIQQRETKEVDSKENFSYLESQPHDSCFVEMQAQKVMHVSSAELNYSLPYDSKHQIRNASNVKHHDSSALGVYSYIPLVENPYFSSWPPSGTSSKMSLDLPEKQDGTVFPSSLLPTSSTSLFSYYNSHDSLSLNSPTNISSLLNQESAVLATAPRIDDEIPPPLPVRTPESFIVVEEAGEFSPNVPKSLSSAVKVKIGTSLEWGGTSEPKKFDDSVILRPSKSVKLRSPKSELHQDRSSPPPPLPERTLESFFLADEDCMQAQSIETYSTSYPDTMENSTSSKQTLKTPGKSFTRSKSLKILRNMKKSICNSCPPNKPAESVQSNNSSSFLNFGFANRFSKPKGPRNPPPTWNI

[2] = biological target: T2, Receptor-type tyrosine-protein phosphatase O (Homo sapiens, UniProt Q16827); experiment: Inhibition of PTPRO (unknown origin)
T2 sequence (Q16827 whole entry): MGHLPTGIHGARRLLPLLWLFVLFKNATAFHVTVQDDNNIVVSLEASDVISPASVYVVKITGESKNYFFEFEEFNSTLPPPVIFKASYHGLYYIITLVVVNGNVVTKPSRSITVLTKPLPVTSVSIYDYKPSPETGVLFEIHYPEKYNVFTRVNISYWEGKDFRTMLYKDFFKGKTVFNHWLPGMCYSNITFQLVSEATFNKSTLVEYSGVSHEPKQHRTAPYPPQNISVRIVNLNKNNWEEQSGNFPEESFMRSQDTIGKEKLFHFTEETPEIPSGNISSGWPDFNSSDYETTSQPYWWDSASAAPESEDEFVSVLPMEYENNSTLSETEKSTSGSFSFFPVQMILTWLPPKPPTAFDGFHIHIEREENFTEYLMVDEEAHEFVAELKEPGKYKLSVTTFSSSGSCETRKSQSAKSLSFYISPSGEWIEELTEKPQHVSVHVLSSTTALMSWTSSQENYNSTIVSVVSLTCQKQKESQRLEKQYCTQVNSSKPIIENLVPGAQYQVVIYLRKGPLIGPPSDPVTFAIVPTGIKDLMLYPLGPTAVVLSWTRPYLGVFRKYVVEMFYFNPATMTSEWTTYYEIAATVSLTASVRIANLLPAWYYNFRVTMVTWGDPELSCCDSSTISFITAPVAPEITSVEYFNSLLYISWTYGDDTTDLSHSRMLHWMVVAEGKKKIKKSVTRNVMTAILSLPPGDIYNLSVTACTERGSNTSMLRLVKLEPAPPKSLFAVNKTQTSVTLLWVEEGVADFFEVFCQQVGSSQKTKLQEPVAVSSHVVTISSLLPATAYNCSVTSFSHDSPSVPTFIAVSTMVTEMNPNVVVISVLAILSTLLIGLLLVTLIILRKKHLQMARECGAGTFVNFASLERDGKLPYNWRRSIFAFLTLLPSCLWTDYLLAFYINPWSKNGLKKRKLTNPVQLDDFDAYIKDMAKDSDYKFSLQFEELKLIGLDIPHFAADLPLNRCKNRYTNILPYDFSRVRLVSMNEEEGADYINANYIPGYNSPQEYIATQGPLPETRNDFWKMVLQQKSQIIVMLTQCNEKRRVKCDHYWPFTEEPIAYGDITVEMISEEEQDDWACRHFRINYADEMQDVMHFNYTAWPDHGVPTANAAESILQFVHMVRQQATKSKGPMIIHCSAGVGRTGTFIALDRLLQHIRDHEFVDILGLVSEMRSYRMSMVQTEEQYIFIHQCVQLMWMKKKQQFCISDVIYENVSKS

[3] = biological target: T3, Tyrosine-protein phosphatase non-receptor type 1 (Homo sapiens, UniProt P18031); experiment: Inhibition of PTP1B (unknown origin)
T3 sequence (P18031 whole entry): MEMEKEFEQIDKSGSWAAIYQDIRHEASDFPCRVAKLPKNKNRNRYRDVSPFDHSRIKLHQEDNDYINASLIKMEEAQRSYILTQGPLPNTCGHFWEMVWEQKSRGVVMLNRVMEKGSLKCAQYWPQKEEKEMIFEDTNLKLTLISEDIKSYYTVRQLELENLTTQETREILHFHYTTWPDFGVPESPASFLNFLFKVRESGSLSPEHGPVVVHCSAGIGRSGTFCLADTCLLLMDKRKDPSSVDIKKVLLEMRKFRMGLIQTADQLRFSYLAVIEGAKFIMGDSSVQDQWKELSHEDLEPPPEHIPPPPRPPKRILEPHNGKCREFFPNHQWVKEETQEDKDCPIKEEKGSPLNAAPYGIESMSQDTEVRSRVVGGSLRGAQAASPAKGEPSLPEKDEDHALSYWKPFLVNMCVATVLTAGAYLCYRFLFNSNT

[4] = biological target: T4, Tyrosine-protein phosphatase non-receptor type 2 (Homo sapiens, UniProt P17706); experiment: Inhibition of TCPTP (unknown origin)
T4 sequence (P17706 whole entry): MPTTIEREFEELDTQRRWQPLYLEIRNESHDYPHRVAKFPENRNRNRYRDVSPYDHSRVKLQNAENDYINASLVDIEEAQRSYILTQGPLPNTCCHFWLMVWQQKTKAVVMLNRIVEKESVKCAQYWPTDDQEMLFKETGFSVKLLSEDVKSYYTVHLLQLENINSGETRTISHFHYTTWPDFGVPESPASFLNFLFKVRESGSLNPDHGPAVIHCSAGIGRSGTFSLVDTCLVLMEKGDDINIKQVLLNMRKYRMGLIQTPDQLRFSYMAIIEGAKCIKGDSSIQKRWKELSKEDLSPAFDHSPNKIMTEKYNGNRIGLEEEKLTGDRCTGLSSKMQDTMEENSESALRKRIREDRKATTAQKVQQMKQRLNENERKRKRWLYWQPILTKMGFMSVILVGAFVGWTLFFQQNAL

[5] = system: HT-22; experiment: Cytotoxicity against mouse HT-22 cells assessed as effect on cell viability at 40 uM incubated for 48 hrs by CCK-8 assay; assay type: toxicity, cell-based; details: ht-22, 48 h
[6] = system: PC-12; experiment: Cytotoxicity against PC-12 cells at 40 uM incubated for 48 hrs by CCK-8 assay; assay type: toxicity, cell-based; details: rat, pc-12, 48 h
[7] = system: HT-22; experiment: Neuroprotective activity against glutamate-induced cytotoxicity in mouse HT-22 cells at 10 to 20 uM assessed as cell death measured after 14 hrs by CCK8 assay; assay type: functional, cell-based; details: dose 10-20 µM
[8] = system: HT-22; experiment: Induction of apoptosis in glutamate-induced mouse HT-22 cells assessed as reduction in C-caspase 3 activation at 10 to 20 uM incubated for 12 hrs by Western blot analysis; assay type: functional, cell-based; details: dose 10-20 µM
[9] = system: HT-22; experiment: Neuroprotective activity against glutamate-induced cytotoxicity in mouse HT-22 cells at 10 to 20 uM assessed as increase in cell viability measured after 14 hrs by CCK8 assay; assay type: functional, cell-based; details: dose 10-20 µM
[10] = system: HT-22; experiment: Effect on STEP expression in mouse HT-22 cells by Western blot analysis; assay type: functional, cell-based
[11] = system: HT-22; experiment: […] glutamate-induced ROS accumulation in mouse HT-22 cells assessed as reduction in fluorescent intensity at 10 to 20 uM incubated for 14 hrs by DCFH-DA staining based inverted fluorescence microscopic analysis; assay type: functional, cell-based; details: dose 10-20 µM
[12] = system: HT-22; experiment: Induction of apoptosis in glutamate-induced mouse HT-22 cells assessed as viable cells at 10 uM incubated for 12 hrs by Annexin V/PI staining based flow cytometry analysis (reference value: 92.6%); assay type: functional; details: read-out: Activity
[13] = system: HT-22; experiment: Induction of apoptosis in glutamate-induced mouse HT-22 cells assessed as early apoptotic cells at 10 uM incubated for 12 hrs by Annexin V/PI staining based flow cytometry analysis (reference value: 1.23 %); assay type: functional
[14] = system: HT-22; experiment: Induction of apoptosis in glutamate-induced mouse HT-22 cells assessed as late apoptotic cells at 10 uM incubated for 12 hrs by Annexin V/PI staining based flow cytometry analysis (reference value: 2.55 %); assay type: functional
[15] = system: HT-22; experiment: Induction of apoptosis in glutamate-induced mouse HT-22 cells assessed as necrotic cells at 10 uM incubated for 12 hrs by Annexin V/PI staining based flow cytometry analysis (reference value: 3.63 %); assay type: functional
[16] = system: HT-22; experiment: Induction of apoptosis in glutamate-induced mouse HT-22 cells assessed as viable cells at 20 uM incubated for 12 hrs by Annexin V/PI staining based flow cytometry analysis (reference value: 92.6%); assay type: functional; details: read-out: Activity
[17] = system: HT-22; experiment: Induction of apoptosis in glutamate-induced mouse HT-22 cells assessed as early apoptotic cells at 20 uM incubated for 12 hrs by Annexin V/PI staining based flow cytometry analysis (reference value: 1.23 %); assay type: functional
[18] = system: HT-22; experiment: Induction of apoptosis in glutamate-induced mouse HT-22 cells assessed as late apoptotic cells at 20 uM incubated for 12 hrs by Annexin V/PI staining based flow cytometry analysis (reference value: 2.55 %); assay type: functional
[19] = system: HT-22; experiment: Induction of apoptosis in glutamate-induced mouse HT-22 cells assessed as necrotic cells at 20 uM incubated for 12 hrs by Annexin V/PI staining based flow cytometry analysis (reference value: 3.63 %); assay type: functional
[20] = system: HT-22; experiment: Anti-apoptotic activity in glutamate-induced mouse HT-22 cells assessed as increase in BCL-2 expression at 10 to 20 uM incubated for 12 hrs by Western blot analysis; assay type: functional, cell-based; details: dose 10-20 µM
[21] = system: HT-22; experiment: Anti-apoptotic activity in glutamate-induced mouse HT-22 cells assessed as decrease in BAX expression at 10 to 20 uM incubated for 12 hrs by Western blot analysis; assay type: functional, cell-based; details: dose 10-20 µM
[22] = system: HT-22; experiment: Anti-apoptotic activity in glutamate-induced mouse HT-22 cells assessed as decrease in BAX expression at 10 to 20 uM incubated for 12 hrs by immunofluorescence analysis; assay type: functional, cell-based; details: dose 10-20 µM
[23] = system: HT-22; experiment: Anti-apoptotic activity in glutamate-induced mouse HT-22 cells assessed as increase in BCL-2 expression at 10 to 20 uM incubated for 12 hrs by immunofluorescence analysis; assay type: functional, cell-based; details: dose 10-20 µM
[24] = system: HT-22; experiment: Induction of apoptosis in glutamate-induced mouse HT-22 cells assessed as reduction in C-caspase 3 activation at 10 to 20 uM incubated for 12 hrs by immunofluorescence analysis; assay type: functional, cell-based; details: dose 10-20 µM
[25] = system: Cortical neurone; experiment: Neuroprotective activity against OGD/R induced C57BL/6J mouse Primary cortical neuron assessed as alleviation in neuronal apoptosis at 10 to 20 uM incubated for 12 hrs by TUNEL staining based analysis; assay type: functional, cell-based; details: dose 10-20 µM
[26] = system: Cortical neurone; experiment: Neuroprotective activity against OGD/R induced C57BL/6J mouse Primary cortical neuron assessed as alleviation in neuronal apoptosis at 10 to 20 uM incubated for 12 hrs by immunofluorescence analysis; assay type: functional, cell-based; details: dose 10-20 µM
[27] = system: Cortical neurone; experiment: Neuroprotective activity against OGD/R induced C57BL/6J mouse Primary cortical neuron assessed as increase in BCL-2 expression at 10 to 20 uM incubated for 12 hrs by immunofluorescence analysis; assay type: functional, cell-based; details: dose 10-20 µM
[28] = system: Cortical neurone; experiment: Neuroprotective activity against OGD/R induced C57BL/6J mouse Primary cortical neuron assessed as decrease in BAX expression at 10 to 20 uM incubated for 12 hrs by immunofluorescence analysis; assay type: functional, cell-based; details: dose 10-20 µM
[29] = system: Cortical neurone; experiment: Neuroprotective activity against OGD/R induced C57BL/6J mouse Primary cortical neuron assessed as decrease in C-caspase3 expression at 10 to 20 uM incubated for 12 hrs by immunofluorescence analysis; assay type: functional, cell-based; details: dose 10-20 µM

## O=C(O)c1ccc(-c2ccc(/C=C3\C(=O)c4cccc([N+](=O)[O-])c4C3=O)o2)c(Cl)c1
[1]
  IC50: 11.2 µM
[2]
  IC50: 14.3 µM
[3]
  IC50: 9.01 µM
[4]
  IC50: 44 µM
[5]
  Activity: Non-toxic
[6]
  Activity: Non-toxic
[7]
  Activity: Active
[8]
  Activity: Active
[9]
  Activity: Active
[10]
  Activity: Active
[11]
  Activity: Active
[12]
  viability at 10 µM: 91.9%
[13]
  Activity: 3.15%
[14]
  Activity: 4.02%
[15]
  Activity: 0.92%
[16]
  viability at 20 µM: 93.2%
[17]
  Activity: 2.02%
[18]
  Activity: 3.57%
[19]
  Activity: 1.26%
[20]
  Activity: Active
[21]
  Activity: Active
[22]
  Activity: Active
[23]
  Activity: Active
[24]
  Activity: Active
[25]
  Activity: Active
[26]
  Activity: Active
[27]
  Activity: Active
[28]
  Activity: Active
[29]
  Activity: Active

From ChEMBL document CHEMBL6078701, “Design and synthesis of novel benzoic acid derivatives as striatal-enriched protein tyrosine phosphatase (STEP) inhibitors with neuroprotective properties” (Eur J Med Chem, 2025)
